17 compounds from patent publication US20250352541A1, “THERAPEUTIC FOR CANCER REFRACTORY TO IMMUNE CHECKPOINT INHIBITOR” (Sumitomo Pharma Co., Ltd., priority 2022, published 2025) can be followed below.

For orientation: IC50 means the concentration that gives 50% inhibition.

One data set concerns the target hERG current (Homo sapiens (Human), UniProt Q12809). Nature of the data set: hERG current blocking test. The following applies: for hERG/CHK1: IC50 of hERG divided by IC50 of CHK1 inhibition; for IC50: read-out: hERG inhibition IC50, hERG expressing CHO cells. In general terms: The hERG channel carries a current that helps repolarise heart muscle cells.
In the next data set the target is CHK1 (Homo sapiens (Human), UniProt O14757). Kind of data set: CHK1 inhibitory activity test (IMAP TR-FRET).
The next data set relates to ES-2 cells. Kind of data set: Cell growth suppression experiment. The class given is cell-based. Here is the method: ES-2 cells were obtained from the American Type Culture Collection (ATCC). These cells were cultured at 37° C. in the presence of 5% CO2 in a 10% fetal bovine serum, 1% penicillin/streptomycin containing McCoy's 5a medium.
500 cells were seeded for each well in a 384-well plate, and the evaluated compound was added so that the final concentration of DMSO would be 0.1% to culture the cells for 2 days. After completion of the culture, the cell viability rate was calculated using CellTiter-Glo® 3D Reagent (Promega, G968B).
The results of cell growth suppression test on representative compounds of the present disclosure are listed in the following table based on the ranking of I, IT, III, IV, and V (1000 nM<I, 1000 nM>TI>300 nM, 300 nM>III>100 nM, 100 nMV>IV>30 nM, 30 nM>V).

Another data set deals with CYP3A4 (Homo sapiens (Human), UniProt P08684). Kind of data set: CYP3A4 MBI and enzyme inactivation clearance evaluation. The class given is in vitro ADME. Particulars: for Factor of change in IC50 value: human liver microsome, pre-incubation in the presence of NADPH. The protocol:
The effect and mode of inhibition of the test compound on CYP3A4 were evaluated using a human liver microsome as an enzyme source and midazolam or testosterone as a substrate. […] The IC50 value was calculated from a concentration plot.
For orientation: Liver microsomes are vesicles of endoplasmic reticulum, rich in cytochrome P450 enzymes.

Some results are limits rather than exact numbers.

Chain of CHK1 (O14757 whole entry): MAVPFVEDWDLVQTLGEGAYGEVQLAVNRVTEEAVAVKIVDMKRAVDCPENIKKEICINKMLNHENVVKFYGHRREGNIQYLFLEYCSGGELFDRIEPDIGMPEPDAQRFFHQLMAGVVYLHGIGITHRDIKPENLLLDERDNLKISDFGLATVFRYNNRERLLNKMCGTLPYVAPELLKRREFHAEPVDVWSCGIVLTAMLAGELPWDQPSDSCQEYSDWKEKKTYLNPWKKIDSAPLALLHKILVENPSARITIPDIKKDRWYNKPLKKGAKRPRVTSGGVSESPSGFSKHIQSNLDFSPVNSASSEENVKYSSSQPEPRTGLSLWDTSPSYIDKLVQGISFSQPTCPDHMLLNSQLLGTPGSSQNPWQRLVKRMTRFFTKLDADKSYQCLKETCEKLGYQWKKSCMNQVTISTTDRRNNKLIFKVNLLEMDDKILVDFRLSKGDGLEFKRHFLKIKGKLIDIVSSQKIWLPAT
Chain of CYP3A4 (P08684 whole entry): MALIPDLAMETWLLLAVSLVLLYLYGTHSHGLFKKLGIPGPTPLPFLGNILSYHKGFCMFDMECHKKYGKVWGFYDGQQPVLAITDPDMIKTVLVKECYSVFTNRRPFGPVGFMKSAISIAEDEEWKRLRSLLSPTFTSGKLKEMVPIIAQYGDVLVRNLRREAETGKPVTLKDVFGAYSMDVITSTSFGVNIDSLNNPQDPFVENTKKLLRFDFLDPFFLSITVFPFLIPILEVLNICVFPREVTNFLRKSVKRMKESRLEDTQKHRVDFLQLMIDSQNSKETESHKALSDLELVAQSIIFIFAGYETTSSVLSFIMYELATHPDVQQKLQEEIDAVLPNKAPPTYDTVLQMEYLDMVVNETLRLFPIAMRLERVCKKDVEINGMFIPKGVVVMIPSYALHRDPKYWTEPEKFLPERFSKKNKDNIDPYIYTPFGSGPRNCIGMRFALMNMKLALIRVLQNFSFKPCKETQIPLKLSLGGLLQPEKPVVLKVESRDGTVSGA
Chain of hERG current (Q12809 whole entry): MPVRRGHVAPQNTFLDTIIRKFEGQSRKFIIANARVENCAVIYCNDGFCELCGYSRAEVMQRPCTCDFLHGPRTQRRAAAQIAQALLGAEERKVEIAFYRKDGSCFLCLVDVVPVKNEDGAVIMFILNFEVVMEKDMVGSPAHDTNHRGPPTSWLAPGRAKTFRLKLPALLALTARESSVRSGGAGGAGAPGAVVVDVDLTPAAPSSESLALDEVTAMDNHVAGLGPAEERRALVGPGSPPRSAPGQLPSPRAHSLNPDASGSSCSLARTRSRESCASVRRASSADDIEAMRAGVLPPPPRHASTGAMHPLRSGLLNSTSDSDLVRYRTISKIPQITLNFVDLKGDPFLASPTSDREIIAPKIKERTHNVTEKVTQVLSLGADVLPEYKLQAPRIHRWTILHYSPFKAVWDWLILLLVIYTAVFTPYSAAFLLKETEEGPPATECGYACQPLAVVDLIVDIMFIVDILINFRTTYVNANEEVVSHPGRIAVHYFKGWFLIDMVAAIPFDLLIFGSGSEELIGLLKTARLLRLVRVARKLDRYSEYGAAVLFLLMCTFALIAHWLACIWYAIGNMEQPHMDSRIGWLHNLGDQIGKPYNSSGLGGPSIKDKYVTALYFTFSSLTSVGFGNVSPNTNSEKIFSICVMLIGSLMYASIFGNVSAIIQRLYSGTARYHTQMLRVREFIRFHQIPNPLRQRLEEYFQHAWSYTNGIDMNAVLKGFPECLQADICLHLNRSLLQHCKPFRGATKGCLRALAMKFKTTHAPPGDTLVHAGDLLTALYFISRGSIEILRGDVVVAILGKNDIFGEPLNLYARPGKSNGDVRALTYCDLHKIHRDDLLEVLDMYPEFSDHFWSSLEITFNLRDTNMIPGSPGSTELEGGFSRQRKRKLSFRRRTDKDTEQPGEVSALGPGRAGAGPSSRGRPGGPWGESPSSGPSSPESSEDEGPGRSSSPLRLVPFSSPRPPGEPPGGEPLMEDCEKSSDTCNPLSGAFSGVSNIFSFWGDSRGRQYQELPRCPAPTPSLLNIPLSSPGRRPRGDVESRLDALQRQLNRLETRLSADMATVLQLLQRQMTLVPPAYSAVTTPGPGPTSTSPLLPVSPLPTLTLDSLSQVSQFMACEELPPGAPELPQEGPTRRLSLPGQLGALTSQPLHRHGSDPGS

As for `COc1cncc(OC[C@H](F)CN)c1-c1cc(Nc2cnc(C#N)cn2)n[nH]1` [Example 30, 5-[(5-{3-[(2R)-3-amino-2-fluoropropoxy]-5-methoxypyridin-4-yl}-1H-pyrazol-3-yl)amino]pyrazine-2-carbonitrile], at hERG current, the hERG/CHK1 is reported as 40000 and the IC50 stood at 10.4 µM. At CHK1, the 50% inhibitory concentration (IC50) worked out at 0.26 nM and the “effect of suppressing CHK1 activity compared with prexasertib” value is “more potent effect of suppressing CHK1 activity than prexasertib”. Moreover, the “cell growth suppression effect compared with prexasertib” value in the data set on ES-2 cells is reported as “excellent cell growth suppression effect that is equivalent to that of prexasertib”. In addition, at CYP3A4, the “Factor of change in IC50 value” is reported as “Not Detected”.
As for `COc1ccnc(OCCCN)c1-c1cc(Nc2cnc(C(F)(F)F)cn2)n[nH]1` [Example 16, N-{5-[2-(3-aminopropoxy)-4-methoxypyridin-3-yl]-1-H-pyrazol-3-yl}-5-(trifluoromethyl)pyrazin-2-amine], on hERG current, the hERG/CHK1 is given as below 888 and the IC50 was below 2.7 µM. On CHK1, the half-inhibitory concentration (IC50) stood at 3.04 nM.
Consider `COc1nccc(OCCCN)c1-c1cc(Nc2cnc(C#N)cn2)n[nH]1` [Example 4, 5-({5-[4-(3-aminopropoxy)-2-methoxypyridin-3-yl]-1H-pyrazol-3-yl}amino)pyrazine-2-carbonitrile], for which, at CHK1, the IC50 was found to be 0.23 nM and the “effect of suppressing CHK1 activity compared with prexasertib” value was “more potent effect of suppressing CHK1 activity than prexasertib”. Further, the “cell growth suppression effect compared with prexasertib” value in the data set with ES-2 cells is reported as “excellent cell growth suppression effect that is equivalent to that of prexasertib”.
Turning to `COc1ccnc(OCC2(CN)CC2)c1-c1cc(Nc2cnc(C#N)cn2)n[nH]1` [Example 37, 5-{[5-(2-{[1-(aminomethyl)cyclopropyl]methoxy}-4-methoxypyridin-3-yl)-1H-pyrazol-3-yl]amino}pyrazine-2-carbonitrile], on hERG current, the hERG/CHK1 is below 8438 and the half-inhibitory concentration (IC50) is below 2.7 µM. On CHK1, the IC50 was 0.32 nM and the “effect of suppressing CHK1 activity compared with prexasertib” value is given as “more potent effect of suppressing CHK1 activity than prexasertib”. In addition, in the data set with ES-2 cells, the “cell growth suppression effect compared with prexasertib” value was “excellent cell growth suppression effect that is equivalent to that of prexasertib”. For the same compound, on CYP3A4, the “inhibition of CYP3A4 based on MBI” value is given as “do not exhibit inhibition of CYP3A4 based on MBI” and the “Factor of change in IC50 value” is on record as “Not Detected”.
`COc1nccc(OCC2(CN)CC2)c1-c1cc(Nc2cnc(C#N)cn2)n[nH]1` [Example 38, 5-{[5-(4-{[1-(aminomethyl)cyclopropyl]methoxy}-2-methoxypyridin-3-yl)-1H-pyrazol-3-yl]amino}pyrazine-2-carbonitrile]: the concentration for half-maximal inhibition (IC50) at CHK1 stood at 0.7 nM. Also, the “cell growth suppression effect compared with prexasertib” value in the data set on ES-2 cells is “excellent cell growth suppression effect that is equivalent to that of prexasertib”.
In the case of `COc1cncc(OCCCN)c1-c1cc(Nc2cnc(C#N)cn2)n[nH]1` [Example 3, 5-({5-[3-(3-aminopropoxy)-5-methoxypyridin-4-yl]-1H-pyrazol-3-yl}amino)pyrazine-2-carbonitrile], on CHK1, half-maximal inhibition (IC50) was put at 0.22 nM and the “effect of suppressing CHK1 activity compared with prexasertib” value is “more potent effect of suppressing CHK1 activity than prexasertib”. For the same compound, in the data set with ES-2 cells, the “cell growth suppression effect compared with prexasertib” value is on record as “excellent cell growth suppression effect that is equivalent to that of prexasertib”.
For the compound `COc1cncc(O[C@H](C)C2CNC2)c1-c1cc(Nc2cnc(C#N)cn2)n[nH]1` [Example 33, 5-[(5-{3-[(1R)-1-(azetidin-3-yl)ethoxy]-5-methoxypyridin-4-yl}-1H-pyrazol-3-yl)amino]pyrazine-2-carbonitrile], the midpoint of inhibition at CHK1, the IC50, lay at 0.69 nM. The “cell growth suppression effect compared with prexasertib” value with ES-2 cells is “excellent cell growth suppression effect that is equivalent to that of prexasertib”.
In the case of `CNCCCOc1cncc(OC)c1-c1cc(Nc2cnc(C#N)cn2)n[nH]1` [Example 31, 5-[(5-{3-methoxy-5-[3-(methylamino)propoxy]pyridin-4-yl}-1H-pyrazol-3-yl)amino]pyrazine-2-carbonitrile], at CHK1, half-maximal inhibition (IC50) was put at 0.75 nM. For the same compound, in the data set with ES-2 cells, the “cell growth suppression effect compared with prexasertib” value is “excellent cell growth suppression effect that is equivalent to that of prexasertib”.
Regarding `COc1cncc(OC[C@@H]2CNCCO2)c1-c1cc(Nc2cnc(C#N)cn2)n[nH]1` (stereo in doubt) [Example 12, 5-[(5-{3-methoxy-5-[(morpholin-2-yl)methoxy]pyridin-4-yl}-1H-pyrazol-3-yl)amino]pyrazine-2-carbonitrile], at hERG current, the hERG/CHK1 was determined as 9118 and the half-inhibitory concentration (IC50) is 3.1 µM. For the same compound, on CHK1, the IC50 was 0.34 nM and the “effect of suppressing CHK1 activity compared with prexasertib” value was “more potent effect of suppressing CHK1 activity than prexasertib”.
Regarding `COc1cncc(OC[C@@]2(F)CCNC2)c1-c1cc(Nc2cnc(C#N)cn2)n[nH]1` [Example 22, (R)-5-[(5-{3-[(3-fluoropyrrolidin-3-yl)methoxy]-5-methoxypyridin-4-yl}-1H-pyrazol-3-yl)amino]pyrazine-2-carbonitrile], on hERG current, the hERG/CHK1 came out at 12500 and the half-inhibitory concentration (IC50) was 3 µM. Besides, at CHK1, the IC50 is 0.24 nM and the “effect of suppressing CHK1 activity compared with prexasertib” value was “more potent effect of suppressing CHK1 activity than prexasertib”. Further, the “cell growth suppression effect compared with prexasertib” value in the data set with ES-2 cells was “excellent cell growth suppression effect that is equivalent to that of prexasertib”.
On CHK1, `COc1cncc(OCC2(C)CNC2)c1-c1cc(Nc2cnc(C#N)cn2)n[nH]1` [Example 25, 5-[(5-{3-methoxy-5-[(3-methylazetidin-3-yl)methoxy]pyridin-4-yl}-1H-pyrazol-3-yl)amino]pyrazine-2-carbonitrile] displayed an IC50 of 0.74 nM. In the data set on ES-2 cells, the “cell growth suppression effect compared with prexasertib” value is “excellent cell growth suppression effect that is equivalent to that of prexasertib”.
Take `COc1cncc(OC[C@]2(F)CCNC2)c1-c1cc(Nc2cnc(C#N)cn2)n[nH]1` [Example 20, (S)-5-[(5-{3-[(3-fluoropyrrolidin-3-yl)methoxy]-5-methoxypyridin-4-yl}-1H-pyrazol-3-yl)amino]pyrazine-2-carbonitrile]: at hERG current, the hERG/CHK1 is on record as 11176 and the IC50 was 3.8 µM. For the same compound, at CHK1, the IC50 came out at 0.34 nM and the “effect of suppressing CHK1 activity compared with prexasertib” value is “more potent effect of suppressing CHK1 activity than prexasertib”. Further, in the data set on ES-2 cells, the “cell growth suppression effect compared with prexasertib” value is “excellent cell growth suppression effect that is equivalent to that of prexasertib”.
Take `COc1nccc(OCC2(C)CNC2)c1-c1cc(Nc2cnc(C#N)cn2)n[nH]1` [Example 6, 5-[(5-{2-methoxy-4-[(3-methylazetidin-3-yl)methoxy]pyridin-3-yl}-1H-pyrazol-3-yl)amino]pyrazine-2-carbonitrile]: at CHK1, the half-inhibitory concentration (IC50) was found to be 0.27 nM and the “effect of suppressing CHK1 activity compared with prexasertib” value is given as “more potent effect of suppressing CHK1 activity than prexasertib”. In the data set with ES-2 cells, the “cell growth suppression effect compared with prexasertib” value is given as “excellent cell growth suppression effect that is equivalent to that of prexasertib”.
Turning to `COc1nccc(OCC2(CO)CNC2)c1-c1cc(Nc2cnc(C#N)cn2)n[nH]1` [Example 8, 5-{[5-(4-{[3-(hydroxymethyl)azetidin-3-yl]methoxy}-2-methoxypyridin-3-yl)-1H-pyrazol-3-yl]amino}pyrazine-2-carbonitrile], at hERG current, the hERG/CHK1 is reported as above 1000000 and the IC50 was above 100 µM. Also, at CHK1, the IC50 was below 0.1 nM and the “effect of suppressing CHK1 activity compared with prexasertib” value was “more potent effect of suppressing CHK1 activity than prexasertib”. Also, at CYP3A4, the “Factor of change in IC50 value” is “Not Detected”.
With `CN[C@@H]1CC[C@@H](Oc2cncc(OC)c2-c2cc(Nc3cnc(C#N)cn3)n[nH]2)C1` [Example 35, 5-{[5-(3-methoxy-5-{[(1R,3R)-3-(methylamino)cyclopentyl]oxy}pyridin-4-yl)-1H-pyrazol-3-yl]amino}pyrazine-2-carbonitrile], the half-maximal inhibitory concentration (IC50) on CHK1 amounted to 0.62 nM. In addition, the “cell growth suppression effect compared with prexasertib” value in the data set on ES-2 cells is “excellent cell growth suppression effect that is equivalent to that of prexasertib”.
Take `COc1cncc(O[C@@H]2CCC[C@H](N)C2)c1-c1cc(Nc2cnc(C#N)cn2)n[nH]1` [Example 19, 5-{[5-(3-{[(1R,3S)-3-aminocyclohexyl]oxy}-5-methoxypyridin-4-yl)-1H-pyrazol-3-yl]amino}pyrazine-2-carbonitrile]: at CHK1, the IC50 was found to be 0.26 nM and the “effect of suppressing CHK1 activity compared with prexasertib” value was “more potent effect of suppressing CHK1 activity than prexasertib”. For the same compound, in the data set on ES-2 cells, the “cell growth suppression effect compared with prexasertib” value is “excellent cell growth suppression effect that is equivalent to that of prexasertib”.
For `COc1cncc(OC[C@H]2CNCCO2)c1-c1cc(Nc2cnc(C#N)cn2)n[nH]1` (stereo in doubt) [Example 13, 5-[(5-{3-methoxy-5-[(morpholin-2-yl)methoxy]pyridin-4-yl}-1H-pyrazol-3-yl)amino]pyrazine-2-carbonitrile], on hERG current, the hERG/CHK1 is listed as below 3649 and the IC50 is below 2.7 µM. The compound also displayed a half-maximal inhibitory concentration (IC50) at CHK1 of 0.74 nM.
